Here are results for 2 compounds from publication PMC7064328 (Environmental Health Perspectives, 2020).

Structures are written as SMILES.

One data set concerns rats. The following applies: ref Conley et al. 2019, cited from earlier work.
A further data set has as its system CD-1 mice. The following applies: cited from earlier work.
Another data set has as its system embryo–placenta unit. The data set is described as follows: Embryo/placental growth metrics (mixed-effect models). The format is in vivo, mouse (CD-1). The source says: From each uterus, first, viable embryos and their matched placentas were collected in succession within a horn and immediately snap frozen ( n=2–5 per litter ), and subsequent embryos were collected for growth measurements ( n=2–11 per litter ). Additional placentas were collected and placed in 4% paraformaldehyde (PFA) for histological analysis (Block 2 only). Amniotic fluid was collected by needle aspiration from litters euthanized at E11.5 and snap frozen in liquid nitrogen. Embryo livers were collected from litters euthanized at E17.5 and snap frozen in liquid nitrogen. Dam livers were weighed, a portion of the left lateral lobe was placed in 4% PFA for histology, and another portion of the same lobe was snap frozen in liquid nitrogen. A third liver section was obtained from Block 2 dams and fixed in McDowell and Trump’s fixative for electron microscopy (EM). Gross lesions were collected when observed and placed in 4% PFA for histology. Dam kidneys were removed, a cross section was prepared from the right kidney, a longitudinal section was prepared from the left kidney, and both sections were fixed in 4% PFA for histological analysis.
Gross observations were recorded at necropsy. Embryo sex was determined by polymerase chain reaction (PCR) amplification of the Sry gene (forward, 5′-[…]-3′, and reverse, 3′-[…]-5′) using a snipped portion of tissue (TransnetYX®, Inc.). Embryos and their placentas were weighed separately as wet tissue. Images of embryos were obtained on a Leica Z16 APO imaging scope, and embryo length was measured as snout-to-rump distance using FIJI ([Schindelin et al. 2012]) and Zen 2 Blue (Zeiss).
Embryo and placental metrics were analyzed using mixed-effect models and included a priori fixed effects of treatment group and litter size and a random-effects term for the dam using the lme4 package. Embryo and placental metrics included embryo weight, embryo length, placental weight, and embryo:placenta weight ratios, a meaningful predictor of fetal birth outcomes in humans ([Hayward et al. 2016]). To account for potential introduction of random effects, the study block (Block 1 or Block 2) and experimenter handling of embryo/placental tissues (Experimenter A or Experimenter B) were included as additional random effects. Models were fit in a stepwise procedure for random effects, and final models included treatment group and litter size as fixed effects using the lmerTest package ([Kuznetsova et al. 2017]). All final models included dam as a random effect but were allowed to vary in the inclusion of experimenter and experimental block random effects based on likelihood ratio test results. Point estimates and 95% CIs were determined from the final model using the Wald method. The number of individual observations for each outcome (embryo weight, placenta weight, and embryo:placenta weight ratio) and the number of litters evaluated in the mixed-effect models are shown in Table S1.

On the set-up of data set [1]: method as in Gannon et al. 2016. The following applies: mice; ref Gannon et al. 2016; cited from earlier work.

For `N.O=C(O)C(F)(OC(F)(F)C(F)(F)C(F)(F)F)C(F)(F)F` (centres unmarked) [GenX, ammonium 2,3,3,3-tetrafluoro-2-(heptafluoropropoxy)propanoate], the “LOAEL, disrupted maternal lipids” value with rats (gestational exposure) was 125 mg/kg/day. In the data set on rats (gestational exposure), the “LOAEL, disrupted maternal thyroid hormone” value was 30 mg/kg/day. The “LOAEL, lower BWs in gestationally exposed female offspring” value with rats was 125 mg/kg/day. The Dam plasma concentration in the data set with CD-1 mice (5 mg/kg/d on lactation day 21, ref DuPont-18,405-1,037) is 36.4 µg/mL. Besides, the “NOAEL for reproductive toxicity and maternal systemic toxicity” value with CD-1 mice (microscopic changes in maternal liver, ref DuPont-18,405-1,037 (Edwards 2010b)) is 5 mg/kg/day. Also, the “Embryo length, adjusted estimate (95% CI)” value (shortened to “Embryo length … (95% CI)”) was 17.6 (14.7, 20.5) mm with embryo–placenta unit (E11.5, 2 mg/kg/d); 17.4 (14.5, 20.3) mm with embryo–placenta unit (E11.5, 10 mg/kg/d); 32.7 (28.7, 36.6) mm in the data set on embryo–placenta unit (E17.5, 2 mg/kg/d); 33.8 (29.8, 37.7) mm in the data set with embryo–placenta unit (E17.5, 10 mg/kg/d). The “Embryo weight, adjusted estimate (95% CI)” value (“Embryo weight … (95% CI)” below) is 49.9 (16.7, 83.1) mg in the data set on embryo–placenta unit (E11.5, 2 mg/kg/d); 45.2 (12.0, 78.3) mg in the data set with embryo–placenta unit (E11.5, 10 mg/kg/d); 1369.8 (1111.3, 1628.4) mg in the data set with embryo–placenta unit (E17.5, 2 mg/kg/d); 1337.0 (1077.5, 1596.4) mg with embryo–placenta unit (E17.5, 10 mg/kg/d). The “Placental weight, adjusted estimate (95% CI)” value in the data set with embryo–placenta unit (E11.5, 2 mg/kg/d) is 34.0 (0.1, 67.8) mg; in the data set with embryo–placenta unit (E11.5, 10 mg/kg/d), 38.4 (4.5, 72.2) mg; in the data set on embryo–placenta unit (E17.5, 2 mg/kg/d) it was 137.1 (105.6, 168.6) mg; with embryo–placenta unit (E17.5, 10 mg/kg/d), 146.3 (114.7, 177.9) mg. Also, in data set [1], the Elimination half-life was ~20 h.

On to `O=C(O)C(F)(F)C(F)(F)C(F)(F)C(F)(F)C(F)(F)C(F)(F)C(F)(F)F` [PFOA, Perfluorooctanoic acid], for which the “Embryo weight decrease relative to controls” value in the data set on embryo–placenta unit (5 mg/kg/d) was 9.4%. Besides, in the data set with embryo–placenta unit (E11.5, 1 mg/kg/d), the “Embryo length … (95% CI)” value is 17.5 (14.5, 20.4) mm; the “Embryo weight … (95% CI)” value is 44.7 (11.1, 78.2) mg; the “Embryo:Placental Weight Ratio, adjusted estimate (95% CI)” value is 1.19 (0.62, 1.76); the “Placental weight, adjusted estimate (95% CI)” value was 30.5 (-3.8, 64.7) mg. For the same compound, in the data set on embryo–placenta unit (E11.5, 5 mg/kg/d), the “Embryo length … (95% CI)” value is 18.5 (15.6, 21.4) mm; the “Embryo weight … (95% CI)” value is listed as 45.3 (11.8, 78.7) mg; the “Embryo:Placental Weight Ratio, adjusted estimate (95% CI)” value is 1.21 (0.64, 1.77); the “Placental weight, adjusted estimate (95% CI)” value is 31.2 (-2.9, 65.3) mg. Further, in the data set on embryo–placenta unit (E17.5, 1 mg/kg/d), the “Embryo length … (95% CI)” value is reported as 33.6 (29.6, 37.6) mm; the “Embryo weight … (95% CI)” value is on record as 1350.7 (1091.9, 1609.4) mg; the “Embryo:Placental Weight Ratio, adjusted estimate (95% CI)” value is recorded as 11.1 (8.0, 14.3); the “Placental weight, adjusted estimate (95% CI)” value was 129.7 (98.2, 161.2) mg. Also, in the data set with embryo–placenta unit (E17.5, 5 mg/kg/d), the “Embryo BW lower than vehicle control embryos (mixed-effect model estimate)” value is 129 mg; the “Embryo length … (95% CI)” value was 31.2 (27.2 35.3) mm; the “Embryo weight … (95% CI)” value was 1249.5 (991.0, 1508.0) mg; the “Embryo:Placental Weight Ratio, adjusted estimate (95% CI)” value was 8.5 (5.4, 11.6). Besides, in the data set with embryo–placenta unit (E17.5, 5 mg/kg/d), the “Estimated increase in placental weight relative to controls” value is recorded as 21 mg; the “Placental weight, adjusted estimate (95% CI)” value is given as 151.9 (120.5, 183.4) mg; the “Shift in embryo weight” value is -0.129 g.
